Test results: US6559157B2, “Dihydronaphthalene compounds” (Daiichi Pharmaceutical Co., Ltd., priority 1997, dated 2003)

biological target: T1, Aromatase (Homo sapiens, UniProt P11511); test: Aromatase inhibiting activity test, human placenta microsomes; format: biochemical; conditions: inhibitor 25 μM, testosterone 2.5 μM, NADPH 250 μM
T1 construct: Aromatase was prepared from the microsome fraction of human placenta tissue; from tissue; host or cells: human placenta (microsome fraction)
T1 sequence (P11511 1-503): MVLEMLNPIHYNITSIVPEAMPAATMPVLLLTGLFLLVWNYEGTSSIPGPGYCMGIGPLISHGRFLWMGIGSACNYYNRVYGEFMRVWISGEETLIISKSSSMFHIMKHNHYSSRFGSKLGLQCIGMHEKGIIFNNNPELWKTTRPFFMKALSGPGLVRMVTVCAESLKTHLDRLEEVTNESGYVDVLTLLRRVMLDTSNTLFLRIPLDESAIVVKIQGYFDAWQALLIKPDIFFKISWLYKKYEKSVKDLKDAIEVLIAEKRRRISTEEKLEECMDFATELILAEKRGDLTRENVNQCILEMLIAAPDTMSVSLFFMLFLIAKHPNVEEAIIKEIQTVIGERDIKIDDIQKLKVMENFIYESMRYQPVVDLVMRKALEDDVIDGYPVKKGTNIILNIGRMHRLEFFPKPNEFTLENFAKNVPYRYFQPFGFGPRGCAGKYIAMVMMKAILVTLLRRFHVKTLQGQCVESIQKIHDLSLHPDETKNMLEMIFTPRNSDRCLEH
Method: Measurement was done according to the method of Rolf W. Hartmann and Christine Batzl (J. Med. Chem., 29, 8, 1368, 1986).
Aromatase was prepared from the microsome fraction of human placenta tissue according to the method of Thompson and Siiteri (J. Biol. Chem., 249, 5346, 1974). Microsomes obtained were suspended in a phosphate buffer solution (0.05 M, pH 7.4) and stored at −30° C.
Enzyme activity was evaluated by measuring the amount of ^3H2O produced by [1β, 2β-^3H] testosterone during the reaction according to the methods of Foster A. B. et al. (Foster A. B. et al., J. Med. Chem., 26, 50, 1983) and Graves P. E. and Salhanick H. A. (Endocrinology, 105, 52, 1979) as follows. To a test tube containing 0.225 μCi of [1β, 2β-^3H]testosterone were added 5 μM unlabeled testosterone, 2 mM NADPH, 20 mM glucose-6-phosphate, 1EU of glucose-6-phosphate dehydrogenase, and a test compound (0-250 μM) dissolved in phosphate buffer (0.05 M, pH 7.4). The test compound was dissolved in ethanol and diluted with the phosphate buffer. The final ethanol concentration in a reaction solution of the control and the test compound was 2%. This test tube was preincubated in a water bath at 30° C. for 5 minutes. Next, 0.5 mg of the microsome enzyme was added to start the reaction. The total volume of the reaction solution was 0.5 ml. Water phase portions (100 μl) were taken 0, 7, 14, and 21 minutes after the start of the reaction and added to 200 μl of cold 1 mM HgCl2. To this were added 200 μl of a 2% dextran-treated activatd charcoal (DCC) suspension. The admixture was shaken for 20 minutes and then centrifuged at 1500× g for 5 minutes to isolate the steroid adsorbed on DCC. The amount of the produced ^3H2O in the fractionated supernatant was counted by a liquid scintillation counter. Control samples with no test compound were tested in the same manner. The inhibiting activity (%) was calculated from the measurement using calculation formula 1.
Enzyme source: Human placenta microsomes
Inhibitor concentration: 25 μM (inhibiting activity (%) was calculated)
Substrate concentration: 2.5 μM (testosterone)
NADPH concentration: 250 μM

Row | inhibition at 25 µM | SMILES
1 | 56% | CC1=C(Cc2cccnc2)CCc2ccccc21 [Example 15]
2 | 50% | COc1cccc2c1CCC(Cc1cccnc1)=C2C [Example 16]
3 | 52% | COc1ccc2c(c1)CCC(Cc1cccnc1)=C2C [Example 17]
4 | 61% | COc1ccc2c(c1)C(C)=C(Cc1cccnc1)CC2 [Example 18]
5 | 60% | CC1=C(Cc2cccnc2)CCc2c(O)cccc21 [Example 23]
6 | 37% | CC1=C(Cc2cccnc2)CCc2cc(O)ccc21 [Example 24]

same assay, conditions: testosterone 2.5 μM, NADPH 250 μM

Row | SMILES | IC50
7 | CC1=C(Cc2ccncc2)CCc2ccccc21 [Example 19] | 0.23 µM
8 | COc1cccc2c1CCC(Cc1ccncc1)=C2C [Example 20] | 0.38 µM
9 | COc1ccc2c(c1)C(C)=C(Cc1ccncc1)CC2 [Example 22] | 0.63 µM
10 | CC1=C(Cc2cccnc2)CCc2ccc(O)cc21 [Example 25] | 6.4 µM
11 | CC1=C(Cc2ccncc2)CCc2c(O)cccc21 [Example 26] | 0.7 µM
12 | CC1=C(Cc2ccncc2)CCc2cc(O)ccc21 [Example 27] | 1.3 µM
13 | CC1=C(Cc2ccncc2)CCc2ccc(O)cc21 [Example 28] | 1.2 µM
14 | CCC1=C(Cc2ccncc2)CCc2c(OC)cccc21 [Example 37] | 0.95 µM
15 | CCC1=C(Cc2ccncc2)CCc2cc(OC)ccc21 [Example 38] | 0.79 µM
16 | CCC1=C(Cc2ccncc2)CCc2ccc(OC)cc21 [Example 39] | 1.3 µM
17 | COc1cccc2c1CCC(Cc1ccncc1)=C2 [Example 41] | 0.95 µM
18 | COc1ccc2c(c1)CCC(Cc1ccncc1)=C2 [Example 42] | 0.79 µM
19 | COc1ccc2c(c1)C=C(Cc1ccncc1)CC2 [Example 43] | 1.7 µM
20 | CCCC1=C(Cc2ccncc2)CCc2cc(OC)ccc21 [Example 44] | 0.86 µM
21 | Oc1ccc2c(c1)CCC(Cc1ccncc1)=C2 [Example 45] | 3.5 µM

Further lines, results first:

Row | IC50 | SMILES
22 | 0.65 µM | COc1ccc2c(c1)CCC(Cc1ccncc1)=C2C [Example 21]
23 | 1.2 µM | CCOc1ccc2c(c1)C(C)=C(Cc1c[nH]cn1)CC2 [Example 40]
24 | 1.8 µM | COc1ccc2c(c1)CCC(Cc1c[nH]cn1)=C2 [Example 46]

tested on: Thromboxane A2 synthesis; test: Thromboxane A2 synthesis inhibiting activity test in citric acid-treated human whole blood; format: cell-based; conditions: inhibitor 50 μM, collagen-stimulated
Method: Measurement was done as follows according to the method of Rolf W. Hartmann et al. (Arch. Pharm. Pharm. Med. Chem., 329, 251, 1996). To 0.5 ml of citric acid-treated human whole blood were added 10 μl of an ethanol/K-Na-phosphate buffer solution (pH 7.4) containing a test compound, and the admixture was preincubated at 37° C. for 10 minutes. Dazoxybene hydrochloride (100 μM) was added to the blanks. Next, 50 μl of a collagen solution (final collagen concentration: 53.6 μg/ml) were added and incubation was continued at 37° C. for 10 minutes. The reaction was stopped by adding 0.4 ml of a 20% trichloroacetic acid solution in 0.6 M hydrochloric acid, and the admixture was centrifuged at 4400× g for 10 minutes. The resulting supernatant (0.5 ml) was fractionated and added to 0.5 ml of a 0.53% thiobarbituric acid solution (solvent: K-Na-phosphate buffer (pH 7.4)), and the admixture was heated for 70 minutes and then allowed to stand at room temperature for 30 minutes. This sample was measured by a fluorophotometer (excitation wave length: 533 nm, measurement wave length: 550 nm). Control samples without test compounds were tested in the same manner. The inhibiting activity (%) was calculated from the measurements using formula 1.
Enzyme source: Citric acid-treated human whole blood
Inhibitor concentration: 50 μM (inhibiting activity (%) was calculated)
Substrate concentration: 25 μM (progesterone)

Row | SMILES | inhibition at 50 µM
25 | CC1=C(Cc2ccncc2)CCc2ccccc21 [Example 19] | 25%
26 | COc1cccc2c1CCC(Cc1ccncc1)=C2C [Example 20] | 60%
27 | COc1ccc2c(c1)CCC(Cc1ccncc1)=C2C [Example 21] | 43%

tested on: not given; test: not given; conditions: not given

Row | SMILES | melting point
28 | COc1cccc2c1CCC(=Cc1c[nH]cn1)C2=O [Example 50] | 194 to 195 °C
29 | COc1cccc2c1CCC(Cc1c[nH]cn1)C2=O (centres unmarked) [Example 51] | 145.5 to 148 °C
30 | COc1ccc2c(c1)C(c1ccccc1)=C(Cc1c[nH]cn1)CC2 [Example 59] | 198.5 to 199.5 °C
31 | COc1cccc2c1CCC(Cc1c[nH]cn1)=C2c1ccccc1 [Example 60] | 200 to 202 °C
32 | COc1cccc2c1CCC(Cc1c[nH]cn1)=C2.Cl [Example 62] | 192.5 to 194.5 °C
33 | CCOc1cccc2c1CCC(=Cc1c[nH]cn1)C2=O [Example 64] | 122 to 124 °C
34 | CCOc1cccc2c1CCC(Cc1c[nH]cn1)C2=O (centres unmarked) [Example 65] | 132 to 134 °C
35 | CC(C)COc1ccc2c(c1)CCC(=Cc1c[nH]cn1)C2=O [Example 76] | 79 to 81.5 °C

The remaining lines, values ahead:

Row | melting point | SMILES
36 | 132.5 to 135 °C | COc1cccc2c1CCC(Cc1c[nH]cn1)=C2C [Example 52]
37 | 138 to 141.5 °C | CCC1=C(Cc2c[nH]cn2)CCc2cc(OC)ccc21 [Example 53]
38 | 111.5 to 113.5 °C | CCC1=C(Cc2c[nH]cn2)CCc2ccc(OC)cc21 [Example 54]
39 | 164 to 166 °C | CCC1=C(Cc2c[nH]cn2)CCc2c(OC)cccc21.Cl [Example 55]
40 | 123.5 to 124.5 °C | CCCC1=C(Cc2c[nH]cn2)CCc2cc(OC)ccc21 [Example 56]
41 | 174.5 to 175.5 °C | CCCC1=C(Cc2c[nH]cn2)CCc2c(OC)cccc21 [Example 57]
42 | 201.5 to 202.5 °C | COc1ccc2c(c1)CCC(Cc1c[nH]cn1)=C2c1ccccc1 [Example 58]
43 | 122.5 to 123 °C | COc1ccc2c(c1)CCC(Cc1c[nH]cn1)=C2Cc1ccccc1 [Example 61]
44 | 155.5 to 156.5 °C | COc1ccc2c(c1)C=C(Cc1c[nH]cn1)CC2 [Example 63]
45 | 133.5 to 134.5 °C | CCOc1ccc2c(c1)CCC(=Cc1c[nH]cn1)C2=O [Example 66]
46 | 143.5 to 144.5 °C | CCOc1ccc2c(c1)CCC(Cc1c[nH]cn1)C2=O (centres unmarked) [Example 67]
47 | 139.5 to 141 °C | CCOc1ccc2c(c1)C(=O)C(=Cc1c[nH]cn1)CC2 [Example 68]
48 | 176.5 to 178.5 °C | CCOc1ccc2c(c1)C(=O)C(Cc1c[nH]cn1)CC2 (centres unmarked) [Example 69]
49 | 133.5 to 136 °C | CCOc1cccc2c1CCC(Cc1c[nH]cn1)=C2C [Example 70]
50 | 126 to 127 °C | CCOc1ccc2c(c1)CCC(Cc1c[nH]cn1)=C2C [Example 71]
51 | 170.5 to 171.5 °C | CCOc1ccc2c(c1)C(C)=C(Cc1c[nH]cn1)CC2.Cl [Example 72]
52 | 156.5 to 158 °C | CCCOc1ccc2c(c1)CCC(=Cc1c[nH]cn1)C2=O [Example 73]
53 | 134.5 to 136 °C | CCCOc1ccc2c(c1)CCC(Cc1c[nH]cn1)C2=O (centres unmarked) [Example 74]
54 | 91.5 to 92 °C | CCCOc1ccc2c(c1)CCC(Cc1c[nH]cn1)=C2C [Example 75]
55 | 114.5 to 115 °C | CC(C)COc1ccc2c(c1)CCC(Cc1c[nH]cn1)C2=O (centres unmarked) [Example 77]
56 | 96 to 97 °C | CC1=C(Cc2c[nH]cn2)CCc2cc(OCC(C)C)ccc21 [Example 78]
